Experimental data from ChEMBL document CHEMBL2169784, “Discovery and development of spleen tyrosine kinase (SYK) inhibitors” (J Med Chem, 2012).

Key:
[1] = Cmax in rat at 10 mg/kg, po after 2 hrs administered as single dose; type: ADME, organism-based; design: dose 10 mg/kg, route oral; settings: in vivo
[2] = Half life in rat at 10 mg/kg, po administered as single dose; type: ADME, organism-based; design: dose 10 mg/kg, route oral; settings: in vivo

Cmax [1]: 167 ng/mL
half-life [2]: 1.78 h
Compound: COc1ccc(-c2cc3nccn3c(Nc3ncccc3C(N)=O)n2)cc1OC
